Test results from publication PMC6691788, “Design and synthesis of phthalazine-based compounds as potent anticancer agents with potential antiangiogenic activity via VEGFR-2 inhibition” (Journal of Enzyme Inhibition and Medicinal Chemistry, 2019).

How the values were obtained:
CCRF-CEM = assay: NCI 60 cell panel SRB screen; type: cell-based, human; conditions: Homo sapiens, single dose 10 μM, read-out: percent cell growth promotion
HL-60(TB) = assay: NCI 60 cell panel SRB screen; type: cell-based; conditions: Homo sapiens, single dose 10 μM, read-out: percent cell growth promotion
RPMI-8226 = assay: NCI 60 cell panel SRB screen; type: cell-based; conditions: Homo sapiens; RPMI-8226, single dose 10 μM; read-out: percent cell growth promotion
SR = assay: NCI 60 cell panel SRB screen; type: cell-based; conditions: Homo sapiens, single dose 10 μM, read-out: percent cell growth promotion
NCI-H226 = assay: NCI 60 cell panel SRB screen; type: cell-based; conditions: Homo sapiens; NCI-H226, single dose 10 μM; read-out: percent cell growth promotion
NCI-H322M = assay: NCI 60 cell panel SRB screen; type: cell-based; conditions: Homo sapiens, single dose 10 μM, read-out: percent cell growth promotion
NCI-H460 = assay: NCI 60 cell panel SRB screen; type: cell-based; conditions: Homo sapiens; NCI-H460, single dose 10 μM; read-out: percent cell growth promotion
HCC-2998 = assay: NCI 60 cell panel SRB screen; type: cell-based; conditions: Homo sapiens; HCC-2998, single dose 10 μM; read-out: percent cell growth promotion
HT29 = assay: NCI 60 cell panel SRB screen; type: cell-based; conditions: Homo sapiens, HT-29; HT29, single dose 10 μM; read-out: percent cell growth promotion
KM12 = assay: NCI 60 cell panel SRB screen; type: cell-based; conditions: Homo sapiens; KM12, single dose 10 μM; read-out: percent cell growth promotion
SNB-19 = assay: NCI 60 cell panel SRB screen; type: cell-based; conditions: Homo sapiens; SNB-19, single dose 10 μM; read-out: percent cell growth promotion
LOX IMVI = assay: NCI 60 cell panel SRB screen; type: cell-based; conditions: Homo sapiens, read-out: percent cell growth promotion
SK-MEL-5 = assay: NCI 60 cell panel SRB screen; type: cell-based; conditions: Homo sapiens, SK-MEL-5, read-out: percent cell growth promotion
OVCAR-3 = assay: NCI 60 cell panel SRB screen; type: cell-based; conditions: Homo sapiens; OVCAR-3, single dose 10 μM; read-out: percent cell growth promotion
OVCAR-8 = assay: NCI 60 cell panel SRB screen; type: cell-based; conditions: Homo sapiens; OVCAR-8, single dose 10 μM; read-out: percent cell growth promotion
RXF 393 = assay: NCI 60 cell panel SRB screen; type: cell-based; conditions: Homo sapiens; RXF 393, single dose 10 μM; read-out: percent cell growth promotion
TK-10 = assay: NCI 60 cell panel SRB screen; type: cell-based, human; conditions: Homo sapiens; TK-10, single dose 10 μM; read-out: percent cell growth promotion
PC-3 = assay: NCI 60 cell panel SRB screen; type: cell-based; conditions: Homo sapiens; PC-3, single dose 10 μM; read-out: percent cell growth promotion
T-47D = assay: NCI 60 cell panel SRB screen; type: cell-based; conditions: Homo sapiens, T47D, read-out: percent cell growth promotion
VEGFR-2 tyrosine kinase = molecular target: T1, VEGFR-2 tyrosine kinase (Homo sapiens, UniProt P35968); assay: In vitro VEGFR-2 tyrosine kinase assay (BPS Bioscience); type: biochemical; conditions: read-out: VEGFR-2 % inhibition; 10 μM concentration
T1 construct: purchased BPS Bioscience 40301
Description: The VEGFR tyrosine kinase assays were performed at BPS Bioscience (www.bpsbioscience.com). All the synthesised compounds representing the six series were evaluated for their ability to inhibit VEGFR-2 tyrosine kinase at single dose of 10 µM.
The VEGFR tyrosine kinase activity at single dose concentration of 10 μM was carried out by BPS Bioscience (www.bpsbioscience.com). VEGFR (BPS#40301) served as the enzyme source and Poly (Glu, Tyr) sodium salt, (4:1, Glu:Tyr) (Sigma#P7244) served as the standardized substrate & Kinase-Glo Plus Luminescence kinase assay kit (Promega#V3772). The IC50 determination was carried out where quality control testing is routinely performed on each of the targets to insure compliance to acceptable standards. ^33P-ATP was purchased from Perkin Elmer and ADP-Glo^TM was purchased from Promega. All other materials were of standard laboratory grade.
The VEGFR tyrosine kinase activity was performed using Kinase-Glo Plus luminescence kinase assay kit (Promega). It measures kinase activity by quantitating the amount of ATP remaining in solution following a kinase reaction. The luminescent signal from the assay is correlated with the amount of ATP present and is inversely correlated with the amount of kinase activity. The compounds were diluted to 100 μM in 10% DMSO and […] of the dilution was added to a […] reaction so that the final concentration of DMSO is 1% in all of reactions. All of the enzymatic reactions were conducted at 30 °C for 40 min. The 50 μl reaction mixture contains […], pH 7.4, […], 0.1 mg/ml BSA, 0.2 mg/ml Poly (Glu, Tyr) substrate, 10 μM ATP and VEGFR. After the enzymatic reaction, […] of Kinase-GloPlus Luminescence kinase assay solution (Promega) was added to each reaction and incubate the plate for 5 min at room temperature. Luminescence signal was measured using a BioTek Synergy 2 microplate reader. The protein kinase assays used to determine IC50 value were performed using ADP-GloTM assay kit from Promega which measures the generation of ADP by the protein kinase. Generation of ADP by the protein kinase reaction leads to an increase in luminescence signal in the presence of ADP-GloTM assay kit. The assay was started by incubating the reaction mixture in a 96-well plate at 30 °C for 30 min. After the 30 min incubation period, the assay was terminated by the addition of […] of ADP-GloTM Reagent (Promega). The 96 well plate was shaken and then incubated for 40 min at ambient temperature. […] of Kinase detection reagent was added, the 96-well reaction plate was then read using the ADP-Glo Luminescences Protocol on a GloMax plate reader (Promega: Catalog #E7031). Blank control was set up that included all the assay components except the addition of appropriate substrate (replace with equal volume of kinase assay buffer). The corrected activity for each protein kinase target was determined by removing the blank control value.
VEGFR activity assays were performed in duplicate at each concentration. The luminescence data were analyzed using the computer software, Graphpad Prism. The difference between luminescence intensities in the absence of VEGFR (Lut) and in the presence of VEGFR (Luc) was defined as 100% activity (Lut - Luc). […] IC50 determination for inhibitor against VEGFR was estimated by generating a graph of log inhibitor vs normalized response with variable using the Prism software.

T1 sequence (P35968 20-1356): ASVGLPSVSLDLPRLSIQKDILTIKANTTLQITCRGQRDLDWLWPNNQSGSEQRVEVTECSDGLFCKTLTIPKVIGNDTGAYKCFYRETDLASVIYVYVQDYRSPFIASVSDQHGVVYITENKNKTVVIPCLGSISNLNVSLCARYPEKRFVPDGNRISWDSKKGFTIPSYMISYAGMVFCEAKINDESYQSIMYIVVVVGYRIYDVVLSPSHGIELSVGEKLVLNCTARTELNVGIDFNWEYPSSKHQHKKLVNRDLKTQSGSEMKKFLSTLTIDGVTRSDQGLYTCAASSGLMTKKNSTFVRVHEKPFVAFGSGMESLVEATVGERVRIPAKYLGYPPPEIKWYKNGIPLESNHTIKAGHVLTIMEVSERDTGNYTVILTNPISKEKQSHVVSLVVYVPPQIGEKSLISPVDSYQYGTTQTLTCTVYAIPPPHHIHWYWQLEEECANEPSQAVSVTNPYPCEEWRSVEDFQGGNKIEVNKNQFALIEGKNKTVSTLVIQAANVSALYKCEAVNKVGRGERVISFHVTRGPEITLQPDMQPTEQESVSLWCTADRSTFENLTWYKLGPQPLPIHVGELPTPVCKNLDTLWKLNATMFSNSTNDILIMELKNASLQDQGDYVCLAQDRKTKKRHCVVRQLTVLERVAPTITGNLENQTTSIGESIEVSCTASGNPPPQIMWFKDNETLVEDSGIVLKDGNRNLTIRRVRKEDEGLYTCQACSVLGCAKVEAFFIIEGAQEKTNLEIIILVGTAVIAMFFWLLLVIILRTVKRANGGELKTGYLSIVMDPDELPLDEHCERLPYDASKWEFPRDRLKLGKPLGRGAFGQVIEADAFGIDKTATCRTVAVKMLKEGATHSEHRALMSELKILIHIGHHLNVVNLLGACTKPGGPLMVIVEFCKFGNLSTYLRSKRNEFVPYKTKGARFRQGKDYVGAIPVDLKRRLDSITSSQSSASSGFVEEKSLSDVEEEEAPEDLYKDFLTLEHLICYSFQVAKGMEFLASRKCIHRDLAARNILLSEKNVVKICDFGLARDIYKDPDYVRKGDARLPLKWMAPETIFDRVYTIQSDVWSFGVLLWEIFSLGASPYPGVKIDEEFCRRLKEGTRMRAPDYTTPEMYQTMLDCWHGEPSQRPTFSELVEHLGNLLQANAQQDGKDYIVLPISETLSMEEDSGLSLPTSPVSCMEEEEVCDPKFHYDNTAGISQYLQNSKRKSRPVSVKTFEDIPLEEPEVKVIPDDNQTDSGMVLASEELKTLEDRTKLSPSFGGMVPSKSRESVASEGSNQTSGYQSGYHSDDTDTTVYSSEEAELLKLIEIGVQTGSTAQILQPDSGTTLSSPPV

O=C(Nc1ccc(Nc2nncc3ccccc23)cc1)c1ccc(Cl)cc1 [Compound 5b, 4-Chloro-N-(4-(phthalazin-1-ylamino)phenyl)benzamide]
activity at 10 µM (CCRF-CEM): 103%
activity at 10 µM (HL-60(TB)): 103%
activity at 10 µM (RPMI-8226): 104%
activity at 10 µM (SR): 95%
activity at 10 µM (NCI-H226): 77.9%
activity at 10 µM (NCI-H322M): 109%
activity at 10 µM (NCI-H460): 101%
activity at 10 µM (HCC-2998): 113%
activity at 10 µM (HT29): 104%
activity at 10 µM (KM12): 103%
activity at 10 µM (SNB-19): 104%
activity at 10 µM (LOX IMVI): 99.9%
activity at 10 µM (SK-MEL-5): 99.8%
activity at 10 µM (OVCAR-3): 101%
activity at 10 µM (OVCAR-8): 96.2%
activity at 10 µM (RXF 393): 115%
activity at 10 µM (TK-10): 116%
activity at 10 µM (PC-3): 91.6%
activity at 10 µM (T-47D): 97.6%
inhibition at 10 µM (VEGFR-2 tyrosine kinase): 8%
